In brackets after ≈: the same amount, converted by molar mass.

Common to all, as to format: cell-based
The subject of assay [1] is Faecalibacterium prausnitzii DSM 17677^T. Put plainly: MIC, liquid medium microdilution (CLSI), standard strain. The note with it: for MIC breakpoint category (S/I/R): DSM 17677^T.
The subject of assay [2] is Faecalibacterium prausnitzii EB-FPDK11 strain. In words: MIC, liquid medium microdilution (CLSI), EB-FPDK11. The note with it: for MIC breakpoint category (S/I/R): EB-FPDK11; for resistance or susceptibility of the EB-FPDK11 strain to the agent (in words): text summary of Table 4. Background: Dilution methods test growth across graded concentrations, often in twofold steps.

In assay [3] the test system is Bacteroides thetaiotaomicron ATCC 29741. In words: MIC, liquid medium microdilution (CLSI), QC strain. The note with it: ATCC29741.

With `O=C(N[C@H](CO)[C@H](O)c1ccc([N+](=O)[O-])cc1)C(Cl)Cl` [CHL, chloramphenicol], the “MIC breakpoint category (S/I/R)” value was “R (≥32)” in assay [1] (CHL breakpoints) and “S (≤8)” in assay [2] (CHL breakpoints). In addition, the “resistance or susceptibility of the EB-FPDK11 strain to the agent (in words)” value (“resistance or susceptibility” for short) in assay [2] is “susceptibility”.
On to `CCC[C@@H]1C[C@@H](C(=O)N[C@@H]([C@H]2O[C@H](SC)[C@H](O)[C@@H](O)[C@H]2O)[C@H](C)Cl)N(C)C1` [CLI, clindamycin], for which the “MIC breakpoint category (S/I/R)” value in assay [1] (CLI breakpoints) and in assay [2] (CLI breakpoints) was “(S) (≤2)” throughout.
`CO/N=C(\C(=O)N[C@@H]1C(=O)N2C(C(=O)O)=CCS[C@H]12)c1csc(N)n1` [CTZ, ceftizoxime]: the results for the “MIC breakpoint category (S/I/R)” value in assay [1] (CTZ breakpoints) and in assay [2] (CTZ breakpoints) were “I (64)” and “R (≥128)”, respectively. Besides, the “resistance or susceptibility” value in assay [2] is given as “resistance”.
Broadly, the MIC is the lowest concentration found to suppress growth. Low values mean greater potency, high ones weaker potency. For the compound `C[C@@H](O)[C@H]1C(=O)N2C(C(=O)O)=C(S[C@@H]3CN[C@H](C(=O)N(C)C)C3)[C@H](C)[C@H]12` [MEM, meropenem], the “MIC breakpoint category (S/I/R)” value in assay [1] (MEM breakpoints) and in assay [2] (MEM breakpoints) was “R (≥16)” throughout. Besides, in assay [3], it took 0.5 µg/mL (≈ 1.3 µM) to inhibit growth (MIC). Moreover, the “resistance or susceptibility” value in assay [2] was “resistance”.
Take `Cc1ncc([N+](=O)[O-])n1CCO` [MTZ, metronidazole]: the “MIC breakpoint category (S/I/R)” value in assay [1] (MTZ breakpoints) is listed as “S (≤8)”; in assay [2] (MTZ breakpoints), 5. Also, the “resistance or susceptibility” value in assay [2] is “susceptibility”.
In the case of `COc1c(N2C[C@@H]3CCCN[C@@H]3C2)c(F)cc2c(=O)c(C(=O)O)cn(C3CC3)c12` [MXF, moxifloxacin], the “MIC breakpoint category (S/I/R)” value in assay [1] (MXF breakpoints) and in assay [2] (MXF breakpoints) was “R (≥8)” each time.
As to Piperacillin-tazobactam [PTZ], the “MIC breakpoint category (S/I/R)” value in assay [1] (PTZ breakpoints) and in assay [2] (PTZ breakpoints) was “R (≥128/4)” in each case. Further, the minimum inhibitory concentration (MIC) in assay [1] (test strain DSM 17677^T) and in assay [2] (test strain EB-FPDK11) was 256/4 throughout. Further, the “resistance or susceptibility” value in assay [2] is reported as “resistance”.

(Values after patent US12514882B2, “Faecalibacterium prausnitzii strain EB-FPDK11 and use thereof” (ENTEROBIOME INC., priority 2020, dated 2026).)
